Measurements as given in ChEMBL document CHEMBL3608203, “Benzylated and prenylated flavonoids from the root barks of Cudrania tricuspidata with pancreatic lipase inhibitory activity” (Bioorg Med Chem Lett, 2015).
Activity calls are given as the source filed them. The calls are words filed in the database; no cut-off is given here.

Legend:
[1] = molecular target: T1, Pancreatic triacylglycerol lipase (Sus scrofa, UniProt P00591); assay: Inhibition of porcine pancreatic lipase pre-incubated for 15 mins before p-nitrophenylbutyrate substrate addition by microplate reader based method
T1 sequence (P00591 whole entry): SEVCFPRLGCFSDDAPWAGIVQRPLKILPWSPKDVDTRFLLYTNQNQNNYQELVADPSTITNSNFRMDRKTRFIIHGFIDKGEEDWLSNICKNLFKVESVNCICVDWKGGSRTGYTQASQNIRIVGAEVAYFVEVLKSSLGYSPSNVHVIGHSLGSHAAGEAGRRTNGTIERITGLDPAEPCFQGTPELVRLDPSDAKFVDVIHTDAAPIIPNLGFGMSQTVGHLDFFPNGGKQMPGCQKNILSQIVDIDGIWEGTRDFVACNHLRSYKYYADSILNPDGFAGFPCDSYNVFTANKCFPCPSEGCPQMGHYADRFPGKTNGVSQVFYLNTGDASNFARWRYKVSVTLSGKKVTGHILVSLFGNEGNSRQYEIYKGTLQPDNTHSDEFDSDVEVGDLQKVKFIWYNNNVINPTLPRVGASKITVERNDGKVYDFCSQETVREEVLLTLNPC

[2] = molecular target: T2, Pancreatic triacylglycerol lipase (Sus scrofa) (UniProt P00591); assay: Inhibition of porcine pancreatic lipase at 100 ug/ml pre-incubated for 15 mins before p-nitrophenylbutyrate substrate addition by microplate reader based method
T2 sequence (whole entry): T1 sequence (P00591 whole entry)

[3] = molecular target: T2, Pancreatic triacylglycerol lipase (Sus scrofa); assay: Mixed type inhibition of porcine pancreatic lipase pre-incubated for 15 mins before p-nitrophenylbutyrate substrate addition by Lineweaver-Burk plot method

CC1(C)C=Cc2c(cc3occc(=O)c3c2O)O1
IC50 [1]: > 100 µM
inhibition [2]: 27.5%

O=C1c2c(cc(O)c(O)c2O)O[C@H](c2ccc(O)cc2)[C@H]1O
IC50 [1]: > 100 µM
inhibition [2]: 40.1%

CC(C)(O)CCc1c(O)cc(O)c2c1O[C@@H](c1cc3c(cc1O)OC(C)(C)C=C3)CC2=O
IC50 [1]: 84.6 µM
inhibition [2]: 52%

CC(C)=CCc1c(O)c(Cc2ccc(O)cc2)c(O)c2c1O[C@H](c1ccc(O)cc1)CC2=O
IC50 [1]: 54.8 µM
inhibition [2]: 70.1%

COc1ccc(-c2coc3cc(O)cc(O)c3c2=O)cc1 [BIOCHANIN]
IC50 [1]: > 100 µM
inhibition [2]: 6.1%

CC(C)=CCc1c(O)cc2c(c1O)C(=O)C[C@@H](c1cc3c(cc1O)OC(C)(C)C=C3)O2 [CUDRAFLAVANONE A]
IC50 [1]: 6.5 µM
inhibition [3]: Active
inhibition [2]: 81.4%

O=C1c2c(O)cc(O)cc2O[C@H](c2ccc(O)cc2)[C@H]1O [DIHYDROKAEMPFEROL]
IC50 [1]: > 100 µM
inhibition [2]: 10.8%

O=c1c(-c2ccc(O)cc2)coc2cc(O)cc(O)c12 [GENISTEIN]
IC50 [1]: > 100 µM
inhibition [2]: 3.2%

O=c1c(O)c(-c2ccc(O)cc2)oc2cc(O)cc(O)c12 [KAEMPFEROL]
IC50 [1]: > 100 µM
inhibition [2]: 37%

O=c1c(O)c(-c2ccc(O)cc2O)oc2cc(O)cc(O)c12 [MORIN]
IC50 [1]: > 100 µM
inhibition [2]: 26.3%

O=C1C[C@@H](c2ccc(O)cc2)Oc2cc(O)cc(O)c21 [NARINGENIN]
IC50 [1]: > 100 µM
inhibition [2]: 25.2%

CC(C)=CCc1c(O)cc(O)c2c1OC(c1ccc(O)cc1)CC2=O (configuration not stated) [SOPHORAFLAVANONE B]
IC50 [1]: 76.9 µM
inhibition [2]: 55.5%

CC(C)=CCc1c(O)cc2occ(-c3ccc(O)cc3)c(=O)c2c1O [WIGHTEONE]
IC50 [1]: > 100 µM
inhibition [2]: 49.6%
